Test system: eyes of an animal subject
Details: in vivo
Method: The copolymer PLA:GA Resomer® RG 756 S, Poly(D,L-lactide-co-glycolide) purchased from Evonik Industries, Germany, was dissolved in 11 g of triacetin (Sigma-Aldrich, St. Louis) in 25 ml glass vials to obtain approximately a 6% solution by maintaining the mixture on a stir plate with a magnetic stir bar. The molecular weight was 76,000 for the PLGA polymer. The solution was processed aseptically through a 0.2 μm sterile filter into 1 ml syringes. Each syringe contained approximately 200 μl of formulation.
The polymer formulations were delivered into the eyes of an animal subject and each eye only received a single injection. […] The in-life period of the polymer formulation injections was approximately 90 days. Approximately every week the intraocular pressure (IOP) was measured.
At retrieval, the eyes were examined and inter ocular pressure (IOP) was obtained. The eyes were gently removed, examined, and fixed in Davidson's Solution for a minimum of 24 hours. Post fixation, the eyes were processed for histological analyses.
The tissue samples were processed to yield histological slides and were examined under microscope for inflammation. […]

Substance | IOP immediately post-op | average normalized IOP values, relative to baseline before implantation (FIG. 10) | inflammation on histological slides | time for immediate rise in IOP to return to normal values [min] | visual examination of the eyes at retrieval | visual inspection with an ophthalmoscope (redness of the retina)
D/L-PLA:TMC:PGA [Example 17] | much higher than the baseline | ≤ 100% | no inflammation was noted | ≤ 30 | no abnormalities observed | no redness of the retina
Poly(D,L-lactide-co-glycolide) [Resomer® RG 756 S, reference compound] | much higher than the baseline | above 100% | revealed inflammation | ≤ 30 | – | redness of the retina, a sign of inflammation, in one observation
